Measurements from patent publication US20210093521A1, “ANTIBACTERIAL ACTIVITY BY MG COMPLEX IN DEODORANT EMULSION FOR AEROSOLS, DEODORANT INCLUDING THE SAME AND USE OF THE DEODORANT” (Henkel AG & Co. KGaA, priority 2019, published 2021).

Key:
[1] = test system: bacterial germs known to cause body odor; assay: inhibition yard test, both germs tested; assay type: cell-based, Staphylococcus epidermidis, Staphylococcus hominis; conditions: agent within the deodorant emulsion
From the text: The inhibition yard test (or agar diffusion test) is used to investigate the growth-inhibiting effect of substances or mixtures of substances on the most important bacterial germs known to cause body odor. For this purpose, the pathogen-containing material is spread out on a culture medium (usually on an agar layer within a Petri dish). Filter paper discs impregnated with the mixture of active substances to be tested or with a control without an active substance are placed on the bacterial layer so that the active substances can penetrate the material and spread there. If the test substance has an antimicrobial effect, clearly visible circles, so-called inhibition yards, form around the filter paper discs due to the inhibition of the pathogen growth. These can be measured in mm diameter.
An inhibition yard test was performed with deodorant emulsions containing the following potential or actual bacterial growth inhibiting additives (the amounts are given in weight %)

[2] = test system: four bacteria that cause body odor; assay: membrane test, statements in text for all tested species; assay type: cell-based, Staphylococcus, Corynebacterium and Anaerococcus species; conditions: 14 h, agent or formulation in deodorant emulsion

| Molecule | antibacterial effect in the deodorant emulsion (inhibition zone) [1] | antibacterial effectiveness in the membrane test [2] |
| --- | --- | --- |
| CCCCCCC(CCCC)C(=O)O (stereo not drawn) [Isocarb, 2-butyloctanioc acid] | no effect |  |
| Benzalkonium chloride | good effect even in small quantities | good effect |
